This note sets out measurements from patent US20150254400A1, “GROUPING FOR C[…] CANCER” (AGENCY FOR SCIENCE, TECHNOLOGY AND RESEARCH, priority 2012, published 2015).

For one series, the system named is NCI-60 cell lines. Put plainly: 5-FU sensitivity of NCI-60 cell lines classified into the three subtypes by GCPred. It is filed as cell-based. To be noted: metabolic versus invasive subtype NCI-60 cells, Wilcoxon rank sum test p=0.036. The source says: In addition, GCPred was used to classify the NCI-60 cell lines into the three subtypes.
The test system of the next series is gastric adenocarcinoma. The experiment in a line: Patient survival, surgery plus adjuvant 5-FU based therapy versus surgery alone (Kaplan-Meier, Cox regression). It is filed as in vivo, human. To be noted: for HR (95% CI): Multivariate Cox (treatment + stage). On the procedure: A study was done to determine whether there was a difference in survival among the three subtypes. In this study, cancer-specific death was considered as an event unless stated otherwise.
Data from 188 patients in the SG201 Singapore cohort for which survival information was available was analyzed.
Many of the patients in the Singapore cohort were treated with 5-FU. To investigate the effect of 5-FU treatment on patient survival, the survival of Singapore and Australian patients treated with surgery alone were compared to that of patients treated by surgery and adjuvant 5-FU based therapy.
The clinical decision on administration of 5-FU was based on multiple factors, including the patient's general health, risk of relapse (estimated largely by disease stage), treatment-related toxicities, and patient preference.
FIGS. 8A to F show Kaplan-Meier plots for surgery plus 5-FU versus surgery alone for each of the three subtypes.

For series [1], the system named is gastric cancer cell lines. Put plainly: 5-FU sensitivity in vitro of gastric cancer cell lines assigned to the three subtypes by GCPred. The format is cell-based. The source says: It was then examined whether there are differences in 5-FU sensitivity, in vitro, between gastric cancer cell lines assigned to the three subtypes.
GCPred was first used to predict the subtypes of 28 cell lines for which 5-FU GI50 values had previously been determined.

Entries after “also recorded” stand apart in the source; their conditions may differ.

For `O=c1[nH]cc(F)c(=O)[nH]1` [5-FU, 5-fluorouracil], the “Sensitivity to 5-FU” value in the series with NCI-60 cell lines was “preferential sensitivity”. Moreover, the “Hazard Ratio (95% CI), treatment” value in the series with gastric adenocarcinoma (197 patients in SG and AU cohorts, model ~subtype * treatment + stage, 5-FU vs surgery alone (=1)) is on record as 1.437 (0.728, 2.835). In the series on gastric adenocarcinoma (197 patients in SG and AU cohorts, model ~subtype * treatment + stage, reference Proliferative: 5-FU (=1)), the “Hazard Ratio (95% CI), subtype: treatment interaction, Invasive: 5-FU” value was 0.722 (0.287, 1.817). Further, the “HR (95% CI)” value is 0.222 (0.059, 0.833) in the series with gastric adenocarcinoma (Australian cohort, invasive subtype, 5-FU vs surgery alone (=1)); 1.938 (0.369, 10.170) in the series with gastric adenocarcinoma (Australian cohort, proliferative subtype, 5-FU vs surgery alone (=1)); 1.062 (0.469, 2.407) with gastric adenocarcinoma (Singapore cohort, invasive subtype, 5-FU vs surgery alone (=1)); 2.105 (0.879, 5.043) in the series with gastric adenocarcinoma (Singapore cohort, proliferative subtype, 5-FU vs surgery alone (=1)). The “Deaths among 5-FU treated patients” value in the series with gastric adenocarcinoma (Singapore cohort, metabolic subtype) is on record as “no deaths”. The “Hazard ratio (95% CI)” value in the series with gastric adenocarcinoma (Univariate Cox regression, Singapore cohort, all subtypes, 5-FU vs surgery alone (=1), cancer-specific death) is given as 1.656 (0.983, 2.788). The “5-FU effect on patient survival” value in the series on gastric adenocarcinoma (invasive subtype) is “No effect”; with gastric adenocarcinoma (metabolic subtype) it was “Beneficial”; in the series on gastric adenocarcinoma (proliferative subtype) it was “No effect”. In addition, the “Survival, Kaplan-Meier, surgery plus 5-FU versus surgery alone” value with gastric adenocarcinoma (metabolic-subtype patients) is recorded as “benefited; also recorded: better”; in the series with gastric adenocarcinoma (patients with invasive and proliferative subtypes, not adjusted for TNM stage), “worse”. The “Disease-free survival, Kaplan-Meier, 5-FU treatment compared to surgery alone” value with gastric adenocarcinoma (metabolic-subtype patients, log rank test p=0.025) is “benefited significantly”. Further, the “Benefit from 5-FU treatment by multivariate Cox regression” value with gastric adenocarcinoma (patients with invasive and proliferative subtypes) is “does not suggest any benefit”. Further, the “Sensitivity to 5-FU (GI50 values previously determined)” value in series [1] (28 cell lines, metabolic versus proliferative subtype cells, Wilcoxon rank sum test p=1.47×10-3) is listed as “significantly more sensitive”. The “Chemosensitivity in cell lines” value in series [1] (metabolic subtype cell lines) is 5-FU.
